Experiment [1] deals with Z-138 cells. In words: Z-138 Proliferation Assay (Cell Titer Glo, 5 days). It is filed as cell-based. The conditions noted are these: Homo sapiens. Put shortly: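 Exponentially growing Z-138 cells (10,000 cells/ml) in RPMI 1640 with 10% FBS are exposed to nine-point 3-fold dilutions (final top concentration 20 μM, 0.2% DMSO) for 5 days at 37° C. Viability is measured as ATP by CellTiter-Glo luminescence. The 50% inhibitory concentration comes from a 4-parameter fit.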
(Cellular ATP, detected with luciferase, serves as a proxy for viable cell number.)

The subject of experiment [2] is Z-138 cells. Briefly: Z-138 Methylation Assay (In Cell Western for symmetric di-methyl arginine and DNA content). The class given is cell-based. Particulars: Homo sapiens. The procedure, abridged: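 Symmetric di-methyl arginine signal (800 nm) ratioed to DNA content (700 nm) by In Cell Western after four days of compound treatment of Z-138 suspension cells seeded at 50,000 cells/mL. Percent inhibition set between DMSO and 3 μM reference wells; IC50 curves from triplicates.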

The mark [3] stands for this setting: 120 h, Table A-2, 5 days, top concentration 20 μM.
The mark [4] stands for this setting: Table A-2, 96 hours, symmetric di-methyl arginine, read-out: ICW EC50.

A value given as a limit tells only on which side of the number the result lay.

As a reminder, the EC50 is the concentration at which the effect is half-maximal.

As for `O=C(c1cccc(-c2cccc(OCC(O)CN3CCc4ccccc4C3)c2)c1)N1CCOCC1` (stereo not shown) [Compound D126], the EC50 with Z-138 cells [1] (Table D-2) was > 20 µM; in the experiment on Z-138 cells [2] (Table D-2, read-out: ICW EC50) it was 1 to 10 µM.

As for `CN(CC(O)CN1CCc2ccccc2C1)c1cccc(CNC2CCOCC2)c1` (stereo not shown) [Compound D116], the EC50 in the experiment with Z-138 cells [1] (Table D-2) is > 20 µM; in the experiment on Z-138 cells [2] (Table D-2, read-out: ICW EC50), 1 to 10 µM.

Turning to `CN1CCOc2cccc(OCC(=O)NCC(O)CN3CCc4ccccc4C3)c21` (stereo not shown) [Compound A81], the EC50 in the experiment with Z-138 cells [1] (setting [3]) was 0.101 to 1 µM; in the experiment on Z-138 cells [2] (setting [4]), < 0.1 µM.

On to `Cn1ccc(C(=O)Nc2cccc(OCC(O)CN3CCc4ccccc4C3)c2)n1` (stereo not shown) [Compound D162], for which the EC50 in the experiment on Z-138 cells [1] (Table D-2) was > 20 µM; in the experiment on Z-138 cells [2] (Table D-2, read-out: ICW EC50), 1 to 10 µM.

Regarding `OC(COc1cccc(-c2ccc3ncn(Cc4ccccc4)c3c2)c1)CN1CCc2ccccc2C1` (stereo not shown) [Compound D105], the half-maximal effective concentration (EC50) in the experiment on Z-138 cells [1] (Table D-2) fell in the range of 10 to 40 µM; with Z-138 cells [2] (Table D-2, read-out: ICW EC50), 1 to 10 µM.

Turning to `Cn1ncc2ccc(-c3cc(NCC(O)CN4CCc5ccccc5C4)ncn3)cc21` (stereo not shown) [Compound D205], the EC50 in the experiment with Z-138 cells [1] (Table D-2) is > 20 µM; in the experiment with Z-138 cells [2] (Table D-2, read-out: ICW EC50), 0.101 to 1 µM.

Turning to `N#Cc1cccc(-c2cccc(OCC(O)CN3CCc4ccccc4C3)c2)c1` (stereo not shown) [Compound D172], the EC50 is > 20 µM in the experiment with Z-138 cells [1] (Table D-2) and 1 to 10 µM in the experiment with Z-138 cells [2] (Table D-2, read-out: ICW EC50).

With `CC(=O)c1ccc(-c2cccc(OCC(O)CN3CCc4ccccc4C3)c2)cc1` (stereo not shown) [Compound D137], the EC50 in the experiment on Z-138 cells [1] (Table D-2) was > 20 µM; with Z-138 cells [2] (Table D-2, read-out: ICW EC50) it was 1 to 10 µM.

Take `CC(=O)N1CCN(c2ccccc2OCC(=O)NCC(O)CN2CCc3ccccc3C2)CC1` (stereo not shown) [Compound A90]: the concentration for a half-maximal effect (EC50) is 10 to 50 µM with Z-138 cells [1] (setting [3]) and 0.101 to 1 µM with Z-138 cells [2] (setting [4]).

Turning to `Cc1ccncc1-c1cccc(OCC(O)CN2CCc3ccccc3C2)c1` (stereo not shown) [Compound D113], the half-maximal effective concentration (EC50) lay in the range of 10 to 40 µM in the experiment with Z-138 cells [1] (Table D-2) and 0.101 to 1 µM in the experiment with Z-138 cells [2] (Table D-2, read-out: ICW EC50).

With `CNC(=O)c1cncc(-c2cccc(OCC(O)CN3CCc4ccccc4C3)c2)c1` (stereo not shown) [Compound D182], the half-maximal effective concentration (EC50) in the experiment with Z-138 cells [1] (Table D-2) is > 20 µM; in the experiment on Z-138 cells [2] (Table D-2, read-out: ICW EC50), 1 to 10 µM.

In the case of `O=C(COc1cccc(C(=O)N2CCOCC2)c1)NCC(O)CN1CCc2ccccc2C1` (stereo not shown) [Compound A83], the EC50 with Z-138 cells [1] (setting [3]) was 10 to 50 µM; in the experiment with Z-138 cells [2] (setting [4]), 0.101 to 1 µM.

Take `Cn1cnc2ccc(-c3cncc(NCC(O)CN4CCc5ccccc5C4)n3)cc21` (stereo not shown) [Compound D121]: the EC50 in the experiment on Z-138 cells [1] (Table D-2) is > 20 µM; in the experiment on Z-138 cells [2] (Table D-2, read-out: ICW EC50), 0.101 to 1 µM.

On to `Cn1cnc2ccc(-c3cc(NCC(O)CN4CCc5ccccc5C4)ncn3)cc21` (stereo not shown) [Compound D207], for which the half-maximal effective concentration (EC50) in the experiment with Z-138 cells [1] (Table D-2) lay in the range of 1 to 10 µM; in the experiment on Z-138 cells [2] (Table D-2, read-out: ICW EC50) it was 0.101 to 1 µM.

Consider `Cn1cnc2ccc(-c3cncc(NCC(O)CN4CCc5ccccc5C4)c3)cc21` (stereo not shown) [Compound D199], for which the EC50 in the experiment with Z-138 cells [1] (Table D-2) was 1 to 10 µM; with Z-138 cells [2] (Table D-2, read-out: ICW EC50), < 0.1 µM.

In the case of `CN1CCN(c2ccc(-c3cccc(OCC(O)CN4CCc5ccccc5C4)c3)cn2)CC1` (stereo not shown) [Compound D149], the EC50 in the experiment on Z-138 cells [1] (Table D-2) was 1 to 10 µM; in the experiment on Z-138 cells [2] (Table D-2, read-out: ICW EC50) it was 1 to 10 µM.

Consider `CS(=O)(=O)c1cccc(-c2cccc(OCC(O)CN3CCc4ccccc4C3)c2)c1` (stereo not shown) [Compound D130], for which the EC50 in the experiment on Z-138 cells [1] (Table D-2) was > 20 µM; in the experiment on Z-138 cells [2] (Table D-2, read-out: ICW EC50), 1 to 10 µM.

For `CC(C)Oc1ccc(F)c(-c2cccc(OCC(O)CN3CCc4ccccc4C3)c2)c1` (stereo not shown) [Compound D201], the concentration giving a half-maximal response (EC50) was > 20 µM in the experiment on Z-138 cells [1] (Table D-2) and 1 to 10 µM in the experiment with Z-138 cells [2] (Table D-2, read-out: ICW EC50).

Turning to `O=C(Nc1cccc(OCC(O)CN2CCc3ccccc3C2)c1)c1cncnc1` (stereo not shown) [Compound D161], the EC50 is > 20 µM in the experiment with Z-138 cells [1] (Table D-2) and 1 to 10 µM in the experiment on Z-138 cells [2] (Table D-2, read-out: ICW EC50).

For `Cn1ccc2ccc(-c3cccc(OCC(O)CN4CCc5ccccc5C4)c3)nc21` (stereo not shown) [Compound D176], the 50% effective concentration (EC50) in the experiment on Z-138 cells [1] (Table D-2) was > 20 µM; in the experiment on Z-138 cells [2] (Table D-2, read-out: ICW EC50) it was 0.101 to 1 µM.

With `Cn1ccc2ccc(-c3cccc(OCC(O)CN4CCc5ccccc5C4)c3)cc21` (stereo not shown) [Compound D147], the EC50 was 10 to 40 µM in the experiment on Z-138 cells [1] (Table D-2) and 1 to 10 µM in the experiment with Z-138 cells [2] (Table D-2, read-out: ICW EC50).

On to `COC(=O)c1cccc(-c2cccc(OCC(O)CN3CCc4ccccc4C3)c2)c1` (stereo not shown) [Compound D135], for which the concentration for a half-maximal effect (EC50) in the experiment on Z-138 cells [1] (Table D-2) was > 20 µM; in the experiment with Z-138 cells [2] (Table D-2, read-out: ICW EC50) it was > 20 µM.

`Cn1cnc2ccc(-c3cccc(OCC(O)CN4CCc5ccccc5C4)c3)nc21` (stereo not shown) [Compound D189]: the EC50 in the experiment on Z-138 cells [1] (Table D-2) lay in the range of 0.101 to 1 µM; in the experiment on Z-138 cells [2] (Table D-2, read-out: ICW EC50), 0.101 to 1 µM.

Source of the values: patent US20150344457A1, “METHODS OF INHIBITING PRMT5” (EPIZYME, INC., priority 2012, published 2015).
